Experimental data: patent US9540397B2, “BACE1 inhibitors” (Hoffmann-La Roche Inc., priority 2014, dated 2017)

How the values were obtained:
BACE1 = biological target: T1, BACE1 (Homo sapiens, UniProt P56817); assay: Cellular Aβ-lowering assay (Abeta 40 AlphaLISA, HEK293 APP cells); assay type: cell-based; details: 18-20 hrs incubation, Aβ40 in culture supernatant, read-out: BACE1 cell act. Aβ40 IC50
T1 construct: endogenous in cells; host or cells: HEK293 APP cells
Summary of the method: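 APP-expressing HEK293 cells exposed to compounds for 18-20 h at 37° C. (1% DMSO final). Secreted Aβ1-40 in supernatant measured by AlphaLISA (615 nm emission), expressed as percent of DMSO-only signal, and IC50 fitted.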

[1] = system: Aβ40 in brain of wild-type mice; assay: Lowering of Aβ40 in brain of wild-type mice; assay type: in vivo; details: Mus musculus, po; female C57Bl/6J mice, 30 mg/kg per os, 4 h; brain Aβ40 related to the value in the vehicle group; read-out: Aβ40 (wt mice, brain)

T1 sequence (P56817 46-501): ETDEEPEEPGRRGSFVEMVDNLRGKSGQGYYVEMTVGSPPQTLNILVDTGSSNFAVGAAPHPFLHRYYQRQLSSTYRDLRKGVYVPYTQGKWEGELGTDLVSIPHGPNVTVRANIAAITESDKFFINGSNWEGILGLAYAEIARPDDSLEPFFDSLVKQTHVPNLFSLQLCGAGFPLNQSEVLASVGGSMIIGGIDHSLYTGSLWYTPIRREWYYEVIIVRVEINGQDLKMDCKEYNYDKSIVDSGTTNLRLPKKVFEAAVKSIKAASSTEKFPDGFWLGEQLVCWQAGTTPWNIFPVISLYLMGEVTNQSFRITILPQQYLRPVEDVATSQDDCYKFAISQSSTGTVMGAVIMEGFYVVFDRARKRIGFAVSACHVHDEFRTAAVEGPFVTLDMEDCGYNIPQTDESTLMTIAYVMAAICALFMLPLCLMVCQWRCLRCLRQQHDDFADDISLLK

- IC50 (BACE1): 26.6 nM
SMILES: CC1(C)C(N)=N[C@](C)(c2nc(NC(=O)c3ncc(OC(F)F)cc3Cl)ccc2F)[C@H]2CC(F)(F)CN=[S@@]21=O [Example 45AA, N-(6-((4aR,5R,9R)-7-amino-3,3-difluoro-5,8,8-trimethyl-9-oxido-2,3,4,4a,5,8-hexahydro-[1,4]thiazino[2,1-f][1,2]thiazin-5-yl)-5-fluoropyridin-2-yl)-3-chloro-5-(difluoromethoxy)-picolinamide]
- response vs control in vivo at 30 mg/kg [1]: 85%
